Article PMC12595484, “Optimizing multifunctional fluorescent ligands for intracellular labeling” (Proceedings of the National Academy of Sciences of the …, 2025)

Key:
[1] = tested on: mitochondria from HEK293T cells expressing OMP25–msGFP–HaloTag; test: Affinity capture of mitochondria with streptavidin beads, in-gel fluorescence; type: cell-based; conditions: for capture efficiency: 100 nM ligand, mean ± SEM; for mitochondria pulldown efficiency at 10-fold higher concentration: 1 µM ligand vs 100 nM
Description: We then used 15HTL and 16HTL to purify mitochondria from these cells by incubation followed by washing and cell lysis. The crude supernatant was incubated with streptavidin-coated magnetic microbeads and washed. The bead-bound mitochondria were lysed, and the resulting solution was analyzed by SDS–PAGE/in-gel fluorescence (Fig. 5 A and B). […] The lower in-gel fluorescence brightness for the wash and bound fractions of 15HTL or 16HTL compared to the wash and bound fractions of their parent dyes 5HTL or 6HTL (Fig. 5 B and C) stems from the variability of transient transfection and band broadening due to the larger ligand. […]
Affinity capture and in-gel fluorescence quantification. Affinity capture pulldown isolation experiments of biotin-labeled HaloTag fusion proteins were performed on ice-cold isolation buffer (IB) consisting of KCl (0.18 M), ethylene glycol-bis(β-aminoethyl ether)-N,N,N′,N′-tetraacetic acid (EGTA; 1 mM), 3-(N-morpholino)propanesulfonic acid (MOPS; 5 mM); the pH was adjusted to pH = 7.35 using KOH(aq).15 StrepTactin Microbeads (IBA Lifesciences, 6-5510-050) were used as capture reagents as these beads had lowest amount of background observed in our hands. These beads were kept at 4 °C and blocked in IB buffer with PMSF and 1% (v/v) bovine serum albumin (BSA; Jackson ImmunoResearch, 001-000-162) with rotation at 4 °C for 30 min. HEK293T cells were scraped with 200 µL IB and homogenized using 12 strokes with a 27G syringe. The resulting homogenate was spun at 4 °C at 800 g for 5 min to pellet large cellular debris. 50 µL of freshly blocked StrepTactin microbeads were added to the supernatant and incubated for 30 min at 4 °C with slow rotation. After incubation, tubes were placed in DynaMag2 (ThermoFisher, 12321D) magnetic racks and washed twice with IB+PMSF. All wash steps were kept at 4 °C (cold room).
The post-bead supernatant and wash volumes were pooled and spun at 15,000 g for 12 min. This last step pelleted the unbound mitochondria for final analysis of capture efficiency. The bead fraction and the pooled/pelleted fraction were then solubilized using the lysis buffer containing 1× PBS, 2% (v/v) SDS, 1% (v/v) Triton x-100, 10 mM EDTA, and protease inhibitors (2 mM PMSF, aprotinin, leupeptin, and pepstatin A). Samples were then incubated at 50 °C for 3–4 min after the addition of Laemmli sample buffer (SB; Bio-Rad, 1610747) with β-mercaptoethanol (Bio-Rad, 1610710). For protein detection, 10–20 µL of the sample was subjected to SDS-PAGE, using 10% Tris-Glycine gels (TGX) (Bio-Rad, 5671034) with Tris-Glycine buffer (Bio-Rad, 1610732). The affinity capture pulldown efficiency was monitored using in-gel fluorescence. The msGFP signal from HaloTag-TEV-4×GS-msGFP-mito after cell lysis and SDS-PAGE was analyzed, in-gel, using a Bio-Rad Chemidoc MP imager (Bio-Rad) through GFP fluorescence excitation and emission filters. Data were quantified by densitometry using Fiji.14 Capture efficiency was calculated comparing the total GFP signal recovered from StrepTactin beads vs the signal recovered from the high speed spin of the bead supernatant and pooled wash volumes. […]

[2] = Determination of lactone–zwitterion equilibrium constant KL–Z; type: physicochemical; conditions: 1:1 (v/v) dioxane–water
Description: Detailed descriptions of the materials and methods are provided in the supporting information. Multifunctional rhodamine–HaloTag ligands (13HTL–16HTL and 18HTL–20HTL) were synthesized using palladium-catalyzed cross-coupling reactions to install 3-carboxyazetidine moieties onto rhodamine scaffolds, followed by amide bond formation with biotin–PEG2–NH2, (S)-JQ1–PEG2–NH2, or (R)-JQ1–PEG2–NH2. Spectroscopic properties (λabs, λem, ε, and Φf) were determined in 10 mM HEPES, pH 7.3. The lactone–zwitterion equilibrium constants (KL–Z) were measured in 1:1 (v/v) dioxane–water mixtures. Octanol–water distribution coefficients (logD7.4) were determined by miniaturized shake-flask partitioning experiments using PBS (pH 7.4) and 1-octanol. Cell culture experiments employed HEK293T, U2OS, and Neuro2a cells transfected with HaloTag fusion constructs and labeled with ligands (100 nM to 1 μM, 0.5 to 2 h at 37 °C), followed by fluorescence microscopy using confocal or lattice light-sheet microscopy. Affinity purification studies utilized streptavidin magnetic beads to capture biotin-labeled HaloTag conjugates, with analysis by SDS-PAGE and in-gel fluorescence detection. […]
Reported values for extinction coefficient (ε) are averages of at least two […]
Determination of KL−Z. The lactone−zwitterion equilibrium constant (KL−Z) was calculated as described previously2-4 using equation 1: […]
where εdw is the extinction coefficient of the dyes in a 1:1 (v/v) dioxane:water solvent mixture containing 0.01% (v/v) triethylamine; this dioxane−water mixture was chosen to give a large range of KL−Z values,3 and the triethylamine additive ensures the rhodamines are in the net neutral form.
The εmax is the maximal extinction coefficient, measured in 0.1% (v/v) trifluoroacetic acid in 2,2,2-trifluoroethanol (TFE) or ethanol. […]

SMILES | protein capture ([1]; biotin-free ligands) | KL–Z [2] | capture efficiency [1] | mitochondria pulldown efficiency at 10-fold higher concentration [1]
C[Si]1(C)c2cc(N3CC(F)C3)ccc2C2(OC(=O)c3ccc(C(=O)NCCOCCOCCCCCCCl)cc32)c2ccc(N3CC(F)C3)cc21 [6HTL, JF635–HaloTag ligand, reference compound] | no appreciable protein capture | 0.0048 |  | 
O=C(CCCCC1SCC2NC(=O)NC21)NCCOCCOCCNC(=O)C1C[N+](=c2ccc3c(-c4cc(C(=O)NCCOCCOCCCCCCCl)ccc4C(=O)[O-])c4ccc(N5CCC5)cc4oc-3c2)C1 (stereo not shown) [13HTL, biotin–JF549–HaloTag ligand] |  | 5.9 |  | 
CC1(C)C2=CC(=[N+]3CC(C(=O)NCCOCCOCCNC(=O)CCCC[C@@H]4SC[C@@H]5NC(=O)N[C@@H]54)C3)C=CC2=C(c2cc(C(=O)NCCOCCOCCCCCCCl)ccc2C(=O)[O-])c2ccc(N3CCC3)cc21 (stereo partly shown) [14HTL, biotin–JF608–HaloTag ligand] |  | 0.17 |  | 
C[Si]1(C)C2=CC(=[N+]3CC(C(=O)NCCOCCOCCNC(=O)CCCC[C@@H]4SC[C@@H]5NC(=O)N[C@@H]54)C3)C=CC2=C(c2cc(C(=O)NCCOCCOCCCCCCCl)ccc2C(=O)[O-])c2ccc(N3CCC3)cc21 (stereo partly shown) [15HTL, biotin–JF646–HaloTag ligand] |  | 0.0086 | 84.2 ± 1.8% | did not increase mitochondria pulldown efficiency
C[Si]1(C)C2=CC(=[N+]3CC(F)(C(=O)NCCOCCOCCNC(=O)CCCC[C@@H]4SC[C@@H]5NC(=O)N[C@@H]54)C3)C=CC2=C(c2cc(C(=O)NCCOCCOCCCCCCCl)ccc2C(=O)[O-])c2ccc(N3CC(F)C3)cc21 (stereo partly shown) [16HTL, biotin–JF635–HaloTag ligand] |  | 0.0032 | 88.2 ± 1.1% | did not increase mitochondria pulldown efficiency
